Assay results taken from patent publication US4661505A, “Leukotriene antagonists” (Eli Lilly and Company, priority 1982, dated 1987).

Key:
Format in all cases: cell-based
[1] = biological target: T1, LTD4 evoked ileal contractions (Cavia porcellus, UniProt Q2NNR5); experiment: Antagonism of LTD4-evoked contraction of isolated guinea pig ileum (single concentration); settings: pure LTD4, 5 minute exposure, read-out: Percent Inhibition of LTD4 evoked ileal contractions; for inhibition at 3 µM: 3 × 10^-6 M; for inhibition at 10 µM: 1 × 10^-5 M; for inhibition at 1 µM: 1 × 10^-6 M
T1 construct: A section of terminal ileum was removed, the lumen cleaned, and the tissue divided into 2.5 cm. segments; from tissue; host or cells: terminal ileum of male Hartley guinea pigs
T1 sequence (Q2NNR5 1-340): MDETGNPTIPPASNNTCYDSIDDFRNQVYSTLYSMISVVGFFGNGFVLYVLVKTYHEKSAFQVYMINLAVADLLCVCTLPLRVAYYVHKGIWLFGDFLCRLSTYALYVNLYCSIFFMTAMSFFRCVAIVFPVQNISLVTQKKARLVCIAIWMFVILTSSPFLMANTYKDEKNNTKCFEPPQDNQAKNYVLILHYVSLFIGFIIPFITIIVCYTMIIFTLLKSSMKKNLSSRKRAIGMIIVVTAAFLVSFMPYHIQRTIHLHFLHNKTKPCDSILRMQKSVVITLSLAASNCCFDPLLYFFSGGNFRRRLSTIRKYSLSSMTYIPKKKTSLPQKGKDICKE
Method: (§1) Male, Hartley guinea pigs weighing 200-450 grams were killed by decapitation. A section of terminal ileum was removed, the lumen cleaned, and the tissue divided into 2.5 cm. segments. The ilea were mounted in 10 ml. tissue baths containing Krebs-bicarbonate solution of the following composition in mmoles/liter: KCl, 4.6; CaCl2.2H2 O, 1.2; KH2 PO4, 1.2; MgSO4.7H2 O, 1.2; NaCl, 118.2; NaHCO3, 24.8 and dextrose, 10.0. The bath fluid was maintained at 37° C. and aerated with 95 percent oxygen and 5 percent CO2. In addition, the buffer contained 1×10^-6 M atropine to reduce ileal spontaneous activity. In studies with crude SRS-A, 1×10^-6M pyrilamine was used to mitigate the actions of histamine present along with the biologically active leukotrienes. Isometric measurements were made with a Grass FTO3C force-displacement transducer and recorded on a Grass polygraph as change in grams of force. A passive force of 0.5 g. was applied to the tissues. After an appropriate equilibration period, single submaximal control responses to either SRS-A or pure LTD4 were obtained. Following a 5 minute exposure of the ileum to an experimental drug, the control concentration of SRS-A or LTD4 was added to the tissue bath. The response of the ileum to SRS-A or LTD4 in the presence of the drug was compared to the response in the absence of the drug.
(§2) *Compounds marked with an asterisk were tested using crude SRSA as the
(§3) ileumcontracting agent; all other compounds were tested using pure

[2] = biological target: T1, LTD4 evoked ileal contractions; experiment: LTD4 antagonism, cumulative concentration-response curves in guinea pig ileum and trachea (pA2); settings: 30 minute incubation with antagonist, Furchgott method
Method: For some of the drugs in this series a more detailed analysis of LTD4 antagonism was made. In these experiments, cumulative concentration-response curves were obtained to LTD4 in guinea pig ileum and trachea. This was followed by a 30 minute incubation with various concentrations of the experimental drug. The concentration response curve to LTD4 was then repeated in the presence of the antagonist. Only one concentration of antagonist was used on a single tissue. KB values were calculated by the method of Furchgott [Ann. N.Y. Acad. Sci., 139, 553 (1967)]using the following equation. [formula] Dose ratio refers to the concentration of agonist required to elicit 50 percent of the maximal response (ED50) in the presence of the antagonist divided by the ED50 in the absence of the antagonist. Calculations were performed with the aid of a computer and a digital plotter.

[3] = test system: SRS-A evoked ileal contractions; experiment: Antagonism of crude SRS-A-evoked contraction of isolated guinea pig ileum (single concentration); settings: Cavia porcellus, 5 min, 5 minute exposure, pyrilamine 1×10^-6 M, read-out: Percent Inhibition of SRS-A evoked ileal contractions; for inhibition at 3 µM: 3 × 10^-6 M
Method: as §1, §2, §3

| Compound | inhibition at 3 µM [1] [%] | Kb [2] [nM] | inhibition at 10 µM [1] [%] | inhibition at 1 µM [1] [%] | inhibition at 10 µM ([3]; 1 × 10^-5 M) [%] | inhibition at 3 µM [3] [%] |
| --- | --- | --- | --- | --- | --- | --- |
| CCCc1c(OCCCCCC(=O)O)ccc(C(C)=O)c1O [Example 24, 6-(4-Acetyl-3-hydroxy-2-propylphenoxy)hexanoic acid] | 81 | 398 | – | – | – | – |
| CCCc1c(OCCCCCSc2nn[nH]n2)ccc(C(C)=O)c1O [Example 68, 5-[5-(4-Acetyl-3-hydroxy-2-propylphenoxy)pentanethio]-tetrazole] | – | 158 | 100 | 82 | – | – |
| CCCc1c(OCCCCCCc2nnn[nH]2)ccc(C(C)=O)c1O [Example 9, 5-[6-(4-Acetyl-3-hydroxy-2-propylphenoxy)hexyl]-tetrazole] | 100 | 79.4 | – | 87 | – | – |
| CCCc1c(OCCCCCc2nnn[nH]2)ccc(C(C)=O)c1O [Example 22, 5-[5-(4-Acetyl-3-hydroxy-2-propylphenoxy)pentyl]-tetrazole] | 87 | 263 | – | – | – | – |
| CCCc1c(OC(CCCCC(=O)O)c2ccc(-c3ccccc3)cc2)ccc(C(C)=O)c1O (stereo not drawn) [Example 17, 6-(4-Acetyl-3-hydroxy-2-propylphenoxy)-6-(4-biphenyl)hexanoic acid] | – | – | – | – | 44 | – |
| CCCc1c(OC(C)CCCCC(=O)O)ccc(C(C)=O)c1O (stereo not drawn) [Example 40, 6-(4-Acetyl-3-hydroxy-2-propylphenoxy)heptanoic acid] | 45 | 1580 | 79 | – | – | – |
| CCCc1c(OCCCCCCCc2nnn[nH]2)ccc(C(C)=O)c1O [Example 10, 5-[7-(4-Acetyl-3-hydroxy-2-propylphenoxy)heptyl]-tetrazole] | 95 | 79.4 | – | 92 | – | – |
| CCCc1c(OCCCCSc2nn[nH]n2)ccc(C(C)=O)c1O [Example 57, 5-[4-(4-Acetyl-3-hydroxy-2-propylphenoxy)butanethio]-tetrazole] | – | 100 | – | 87 | – | – |
| CCCc1c(OCCCCC(=O)O)ccc(C(C)=O)c1O [Example 28, 5-(4-Acetyl-3-hydroxy-2-propylphenoxy)pentanoic acid] | – | 1580 | – | – | – | 61 |
| CCCc1c(OCCCSc2nn[nH]n2)ccc(C(C)=O)c1O [Example 59, 5-[3-(4-Acetyl-3-hydroxy-2-propylphenoxy)propanethio]-tetrazole] | – | 31.6 | – | 95 | – | – |
| CCCc1c(OCCSc2nn[nH]n2)ccc(C(C)=O)c1O [Example 58, 5-[2-(4-Acetyl-3-hydroxy-2-propylphenoxy)ethanethio]-tetrazole] | – | 1120 | – | 47 | – | – |
| CCCc1c(OCCCCCCCCCc2nnn[nH]2)ccc(C(C)=O)c1O [Example 12, 5-[9-(4-Acetyl-3-hydroxy-2-propylphenoxy)nonyl]-tetrazole] | 90 | 316 | – | 78 | – | – |
| CCCc1c(OCCCCCCCCCCc2nnn[nH]2)ccc(C(C)=O)c1O [Example 13, 5-[10-(4-Acetyl-3-hydroxy-2-propylphenoxy)decyl]-tetrazole] | 93 | 316 | – | 76 | – | – |
| CCCc1c(OCCCCCC(=O)O)ccc(C(=O)CC)c1O [Example 34, 6-(4-Propionyl-3-hydroxy-2-propylphenoxy)hexanoic acid] | 56 | 794 | 88 | – | – | – |
| CCCc1c(OCCCCCCCCc2nnn[nH]2)ccc(C(C)=O)c1O [Example 11, 5-[8-(4-Acetyl-3-hydroxy-2-propylphenoxy)octyl]-tetrazole] | 100 | 316 | – | 89 | – | – |
| CCCc1c(OCCCCCCCCC(=O)O)ccc(C(C)=O)c1O [Example 31, 9-(4-Acetyl-3-hydroxy-2-propylphenoxy)nonanoic acid] | – | 2000 | 94 | 51 | – | – |
| CC(=O)c1ccc(OC(CCCCC(=O)O)c2ccccc2)cc1O (stereo not drawn) [Example 20, 6-(4-Acetyl-3-hydroxyphenoxy)-6-phenyl-hexanoic acid] | – | – | – | – | – | 20 |
| CC(=O)c1ccc(OCCCCCC(=O)O)cc1O [Example 25, 6-(4-Acetyl-3-hydroxyphenoxy)hexanoic acid] | – | – | – | – | – | 11 |
| CCCc1c(OCCCCCCCCSc2nn[nH]n2)ccc(C(C)=O)c1O [Example 73, 5-[8-(4-Acetyl-3-hydroxy-2-propylphenoxy)octanethio]-tetrazole] | – | 501 | 100 | 50 | – | – |
